Reference: BigSolDB 2.1

O=C(O)c1ccc(O)c(O)c1
solubility (mole fraction)
Details	293.15 K	298.15 K	303.15 K	308.15 K	313.15 K	318.15 K
in ethanol	0.0302	0.041	0.0495	0.0665	0.0847	0.108
in ethyl acetate	0.00478	0.00671	0.00906	0.013	0.0179	0.0233
in methanol	0.0337	0.0451	0.0654	0.093	0.126	0.167
in methyl acetate	0.00563	0.00843	0.0115	0.0167	0.0225	0.03
